Data: patent publication US20220380383A1, “NEUROPROTECTIVE PDI MODULATING SMALL MOLECULES AND METHODS OF USE THEREOF” (THE TRUSTEES OF COLUMBIA UNIVERSITY IN THE CITY OF NEW YORK, priority 2018, published 2022)

Experiments:
PDI = PDI (Homo sapiens, UniProt P07237); test: Enzymatic assay for inhibition of PDI using insulin as substrate; type: biochemical
15N-labeled PDIa = molecular target: T1, 15N-labeled PDIa (Homo sapiens, UniProt P07237); test: 1H-15N HSQC NMR of PDIa; type: binding
T1 construct: His6 (N, cleaved yes); made in house; host or cells: Escherichia coli BL21-Gold (DE3), M9 minimal medium with 15NH4Cl
Experimental: The ^1H-^15N HSQC spectra were performed on Bruker Avance III 500 Ascend (500 MHz) spectrometers at 300 K. The uniformly ^15N-labeled PDIa was dissolved at 50 μM or 100 μM in 90% H2O/10% D20 (v/v), pH 5.1. The ^1H carrier frequency was positioned at the water resonance. The ^15N carrier frequency was positioned at 115 ppm. The spectral width in the ^1H dimension was 7500 Hz and the width in ω1 (^15N) dimension was 1824.6 Hz. Suppression of water signal was accomplished using the WATERGATE sequence. Heteronuclear decoupling was accomplished using GARP decoupling scheme.

Adrenergic β2 = Adrenergic β2 (Homo sapiens, UniProt P07550); test: Off-target panel, Adrenergic β2; type: binding; conditions: Conc. 3 μM
Muscarinic M2 = Muscarinic M2 (Homo sapiens, UniProt P08172); test: Off-target panel, Muscarinic M2; type: binding; conditions: Conc. 3 μM
Opiate (OP3, MOP) = Opiate (OP3, MOP) (Homo sapiens, UniProt P35372); test: Off-target panel, Opiate; type: binding; conditions: Conc. 3 μM
[1] = molecular target: Serotonin (5-Hydroxytryptamine) 5-HT2B (Homo sapiens, UniProt P41595); test: Off-target panel, Serotonin 5-HT2B; type: binding; conditions: Conc. 3 μM
DAT = molecular target: T2, DAT (Homo sapiens, UniProt Q01959); test: Safety47 panel transporter DAT; type: cell-based; conditions: Blocker mode; 3 μM
T2 construct: CEREP (CRO panel)
Description: (§1) LOC14 was also submitted for testing in CEREP's Safety47 panel. CEREP is a CRO specializing in preclinical research, discovery and development of new pharmaceutical drugs.

CAV1.2 = molecular target: T3, CAV1.2 (Homo sapiens, UniProt Q13936); test: Safety47 panel ion channel CAV1.2; type: cell-based; conditions: Blocker mode; 3 μM
T3 construct: CEREP (CRO panel)
Description: as §1

hERG = molecular target: T4, hERG (Homo sapiens, UniProt Q12809); test: Safety47 panel ion channel hERG; type: cell-based; conditions: Blocker mode; 3 μM
T4 construct: CEREP (CRO panel)
Description: as §1

NAV1.5 = molecular target: T5, NAV1.5 (Homo sapiens, UniProt Q14524); test: Safety47 panel ion channel NAV1.5; type: cell-based; conditions: Blocker mode; 3 μM
T5 construct: CEREP (CRO panel)
Description: as §1

NMDAR (1A/2B) = molecular target: T6, NMDAR (1A/2B) (Homo sapiens, UniProt Q05586+Q13224); test: Safety47 panel ion channel NMDAR (1A/2B); type: cell-based; conditions: 3 μM
T6 construct: CEREP (CRO panel)
Description: as §1

COX2 = molecular target: T7, COX2 (Homo sapiens, UniProt P35354); test: Safety47 panel non-kinase enzyme COX2; type: biochemical; conditions: Inhibitor mode; 3 μM
T7 construct: CEREP (CRO panel)
Description: as §1

ROCK1 = molecular target: T8, ROCK1 (Homo sapiens, UniProt Q13464); test: Safety47 panel kinase ROCK1; type: biochemical; conditions: Inhibitor mode; 3 μM
T8 construct: CEREP (CRO, Safety47 panel)
Description: as §1

CYP1A2 = molecular target: T9, CYP1A2 (Homo sapiens, UniProt P05177); test: CYP450 inhibition, CYP1A2; type: in vitro ADME; conditions: high concentration of 30 μM
T9 construct: Cyprotex (CRO)

parental ST14A cells = test: Rescue of parental ST14A cells (39° C., serum starved, CellTiter-Glo); type: cell-based, rat; conditions: 48 hours
Description: Having elucidated the molecular mechanism of LOC14's binding to PDI, we next tested whether PDI modulation with LOC14 would be effective in neurodegenerative disease models. First, we evaluated LOC14's neuroprotection in rat neuron-like PC12 cells stably transfected with an inducible plasmid for truncated mutant huntingtin protein (mHTT^Q103). […] We next evaluated the activity of LOC14 in cells that more closely represent the medium-size spiny neurons affected in Huntington Disease patients. We used rat embryonic day 14 striatal neuronal cells (ST14A) immortalized by transduction of temperature-sensitive SV40 large T antigen (Cattaneo and Conti, 1998; Ehrlich et al. 2001; Rigamonti et al. 2000). Under serum deprivation and at 39° C., where large T antigen is degraded, ST14A cells undergo cell death within 48-72 hours. This death was rescued by treatment with LOC14 (FIG. 13B).

T6 sequence (Q13224 27-1484, other chains not shown): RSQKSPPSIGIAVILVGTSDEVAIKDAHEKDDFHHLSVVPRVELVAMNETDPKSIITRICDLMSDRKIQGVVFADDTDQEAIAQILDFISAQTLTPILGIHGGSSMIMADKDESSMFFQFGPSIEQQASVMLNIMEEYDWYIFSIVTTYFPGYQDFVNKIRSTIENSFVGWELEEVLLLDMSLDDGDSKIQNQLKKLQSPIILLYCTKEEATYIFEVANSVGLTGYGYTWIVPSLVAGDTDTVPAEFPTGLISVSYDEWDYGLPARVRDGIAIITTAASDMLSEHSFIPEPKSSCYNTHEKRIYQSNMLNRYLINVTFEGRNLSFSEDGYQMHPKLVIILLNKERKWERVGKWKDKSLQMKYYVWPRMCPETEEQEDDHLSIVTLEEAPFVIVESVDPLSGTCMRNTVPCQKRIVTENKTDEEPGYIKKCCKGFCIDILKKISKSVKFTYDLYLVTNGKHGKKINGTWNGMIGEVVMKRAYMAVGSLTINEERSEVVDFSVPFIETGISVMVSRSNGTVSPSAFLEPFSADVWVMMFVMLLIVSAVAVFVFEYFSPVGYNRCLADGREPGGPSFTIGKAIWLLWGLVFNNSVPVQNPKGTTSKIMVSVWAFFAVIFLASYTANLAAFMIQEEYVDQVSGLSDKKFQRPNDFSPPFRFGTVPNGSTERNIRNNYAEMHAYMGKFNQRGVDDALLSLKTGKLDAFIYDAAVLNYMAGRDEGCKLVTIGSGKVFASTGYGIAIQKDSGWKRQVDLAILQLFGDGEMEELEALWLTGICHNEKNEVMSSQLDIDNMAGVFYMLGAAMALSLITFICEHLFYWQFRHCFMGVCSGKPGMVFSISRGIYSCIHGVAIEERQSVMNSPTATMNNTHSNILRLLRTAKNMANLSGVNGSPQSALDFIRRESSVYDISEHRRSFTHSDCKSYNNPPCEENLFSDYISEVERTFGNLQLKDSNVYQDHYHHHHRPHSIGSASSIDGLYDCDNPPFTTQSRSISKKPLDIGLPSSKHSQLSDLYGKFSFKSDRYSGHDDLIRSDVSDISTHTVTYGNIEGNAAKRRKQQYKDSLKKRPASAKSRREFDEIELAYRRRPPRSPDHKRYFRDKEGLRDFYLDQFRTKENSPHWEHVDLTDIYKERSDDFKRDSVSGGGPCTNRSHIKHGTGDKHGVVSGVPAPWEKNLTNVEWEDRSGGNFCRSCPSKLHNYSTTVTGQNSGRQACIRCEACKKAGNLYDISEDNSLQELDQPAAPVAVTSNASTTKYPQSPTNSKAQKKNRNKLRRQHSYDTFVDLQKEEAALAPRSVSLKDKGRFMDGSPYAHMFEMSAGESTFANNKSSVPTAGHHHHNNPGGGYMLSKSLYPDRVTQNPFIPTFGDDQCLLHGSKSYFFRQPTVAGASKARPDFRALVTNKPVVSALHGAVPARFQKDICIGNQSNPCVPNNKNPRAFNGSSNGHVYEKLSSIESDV
T7 sequence (P35354 18-604): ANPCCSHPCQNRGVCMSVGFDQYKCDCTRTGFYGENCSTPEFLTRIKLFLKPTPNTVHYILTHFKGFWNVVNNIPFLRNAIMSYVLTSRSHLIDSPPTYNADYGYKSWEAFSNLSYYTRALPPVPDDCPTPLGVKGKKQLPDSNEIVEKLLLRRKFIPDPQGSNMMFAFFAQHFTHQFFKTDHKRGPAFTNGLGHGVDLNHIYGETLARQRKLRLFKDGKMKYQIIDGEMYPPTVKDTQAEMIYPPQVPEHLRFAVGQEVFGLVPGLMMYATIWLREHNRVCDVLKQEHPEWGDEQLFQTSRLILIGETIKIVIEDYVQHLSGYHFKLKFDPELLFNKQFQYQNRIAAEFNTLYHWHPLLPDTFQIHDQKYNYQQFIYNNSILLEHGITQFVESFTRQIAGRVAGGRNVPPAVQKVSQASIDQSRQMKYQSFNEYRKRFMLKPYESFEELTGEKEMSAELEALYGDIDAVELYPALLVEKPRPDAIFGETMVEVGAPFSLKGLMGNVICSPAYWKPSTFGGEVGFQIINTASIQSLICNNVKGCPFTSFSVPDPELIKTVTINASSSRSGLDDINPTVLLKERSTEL
T9 sequence (P05177 whole entry): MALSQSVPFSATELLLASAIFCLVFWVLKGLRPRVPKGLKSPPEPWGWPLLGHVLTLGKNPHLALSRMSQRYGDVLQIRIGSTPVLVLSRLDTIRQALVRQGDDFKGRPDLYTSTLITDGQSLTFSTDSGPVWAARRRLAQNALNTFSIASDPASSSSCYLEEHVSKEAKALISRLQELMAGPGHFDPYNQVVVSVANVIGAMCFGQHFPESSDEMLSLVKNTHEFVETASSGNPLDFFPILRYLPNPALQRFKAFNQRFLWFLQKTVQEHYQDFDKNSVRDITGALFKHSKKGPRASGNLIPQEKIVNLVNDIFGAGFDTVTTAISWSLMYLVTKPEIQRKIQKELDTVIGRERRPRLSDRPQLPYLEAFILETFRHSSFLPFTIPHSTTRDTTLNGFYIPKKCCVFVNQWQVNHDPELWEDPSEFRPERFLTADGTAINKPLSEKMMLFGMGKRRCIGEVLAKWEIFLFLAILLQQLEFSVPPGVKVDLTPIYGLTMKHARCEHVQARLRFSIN
Sequence of Adrenergic β2 (P07550 whole entry): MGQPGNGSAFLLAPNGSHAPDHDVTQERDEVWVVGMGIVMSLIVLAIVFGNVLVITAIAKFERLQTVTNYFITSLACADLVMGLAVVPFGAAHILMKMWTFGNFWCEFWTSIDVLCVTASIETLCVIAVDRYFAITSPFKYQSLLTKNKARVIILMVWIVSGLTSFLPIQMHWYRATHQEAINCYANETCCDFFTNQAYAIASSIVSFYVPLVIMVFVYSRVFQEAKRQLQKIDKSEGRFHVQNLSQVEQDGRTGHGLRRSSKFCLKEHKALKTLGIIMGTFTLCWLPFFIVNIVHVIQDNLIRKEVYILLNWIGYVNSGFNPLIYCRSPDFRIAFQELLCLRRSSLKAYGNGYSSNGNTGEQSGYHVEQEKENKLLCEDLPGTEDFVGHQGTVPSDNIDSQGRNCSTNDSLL
T8 sequence (Q13464 whole entry): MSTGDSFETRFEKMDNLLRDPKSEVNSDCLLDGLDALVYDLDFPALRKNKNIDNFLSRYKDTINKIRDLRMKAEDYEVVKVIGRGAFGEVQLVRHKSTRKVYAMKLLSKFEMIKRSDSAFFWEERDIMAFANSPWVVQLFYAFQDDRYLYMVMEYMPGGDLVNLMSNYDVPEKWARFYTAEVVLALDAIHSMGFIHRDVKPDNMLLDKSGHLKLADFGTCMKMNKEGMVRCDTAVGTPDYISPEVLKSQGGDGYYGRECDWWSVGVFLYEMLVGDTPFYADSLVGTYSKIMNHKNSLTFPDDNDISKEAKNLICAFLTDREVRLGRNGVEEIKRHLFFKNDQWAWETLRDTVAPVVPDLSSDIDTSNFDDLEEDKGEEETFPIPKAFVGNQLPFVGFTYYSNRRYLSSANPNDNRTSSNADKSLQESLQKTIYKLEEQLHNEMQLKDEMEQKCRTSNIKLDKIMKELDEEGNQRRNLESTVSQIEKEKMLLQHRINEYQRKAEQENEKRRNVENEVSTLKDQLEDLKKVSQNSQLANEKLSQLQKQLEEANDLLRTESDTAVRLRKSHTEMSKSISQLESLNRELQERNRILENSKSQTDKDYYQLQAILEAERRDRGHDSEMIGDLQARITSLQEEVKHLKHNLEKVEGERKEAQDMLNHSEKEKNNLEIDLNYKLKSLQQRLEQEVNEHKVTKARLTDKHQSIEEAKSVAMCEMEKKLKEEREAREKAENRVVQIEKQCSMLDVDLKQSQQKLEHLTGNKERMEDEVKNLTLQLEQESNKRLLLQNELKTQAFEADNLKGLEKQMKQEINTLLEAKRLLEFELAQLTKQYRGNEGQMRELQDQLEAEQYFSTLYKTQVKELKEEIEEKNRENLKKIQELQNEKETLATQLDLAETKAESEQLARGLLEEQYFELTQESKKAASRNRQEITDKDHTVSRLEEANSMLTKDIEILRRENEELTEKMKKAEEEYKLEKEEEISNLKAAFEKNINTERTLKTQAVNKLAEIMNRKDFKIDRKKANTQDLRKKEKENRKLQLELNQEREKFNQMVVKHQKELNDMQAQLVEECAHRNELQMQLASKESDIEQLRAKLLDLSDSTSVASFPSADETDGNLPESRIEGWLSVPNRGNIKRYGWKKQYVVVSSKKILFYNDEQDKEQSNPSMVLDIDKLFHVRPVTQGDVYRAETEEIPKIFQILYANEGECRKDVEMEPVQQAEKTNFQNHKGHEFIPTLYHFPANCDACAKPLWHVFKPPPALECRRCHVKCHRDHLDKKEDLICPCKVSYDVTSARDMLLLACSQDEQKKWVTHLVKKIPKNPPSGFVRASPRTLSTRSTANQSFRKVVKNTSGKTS
Sequence of Serotonin (5-Hydroxytryptamine) 5-HT2B (P41595 whole entry): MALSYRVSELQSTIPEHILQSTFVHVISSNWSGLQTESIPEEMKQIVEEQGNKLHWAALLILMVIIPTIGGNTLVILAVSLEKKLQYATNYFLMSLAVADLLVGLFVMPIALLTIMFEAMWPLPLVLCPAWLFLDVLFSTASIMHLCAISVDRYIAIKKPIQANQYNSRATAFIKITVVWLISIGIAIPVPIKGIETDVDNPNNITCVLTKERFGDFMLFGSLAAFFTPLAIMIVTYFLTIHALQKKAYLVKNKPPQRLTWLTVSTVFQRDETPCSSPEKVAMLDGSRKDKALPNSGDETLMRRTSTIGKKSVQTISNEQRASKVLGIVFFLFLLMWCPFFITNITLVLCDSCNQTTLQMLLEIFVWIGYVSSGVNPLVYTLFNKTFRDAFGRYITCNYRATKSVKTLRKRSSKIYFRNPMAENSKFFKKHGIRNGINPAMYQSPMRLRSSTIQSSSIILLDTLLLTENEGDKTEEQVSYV
T1 sequence (P07237 18-134): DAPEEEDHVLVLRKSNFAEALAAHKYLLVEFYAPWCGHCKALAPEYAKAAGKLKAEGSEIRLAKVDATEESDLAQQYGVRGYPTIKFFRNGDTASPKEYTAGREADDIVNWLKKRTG

**Q.** For `O=C(C1CC1)N1CCN(Cn2sc3c(F)cccc3c2=O)CC1` [LC-43], which “inhibition of enzymatic (reductase) activity of PDI” value (PDI) is on record?
**A.** able to inhibit the enzymatic activity of PDI

**Q.** And the “chemical shift changes in PDIa (1H-15N HSQC)” value (15N-labeled PDIa)?
**A.** same chemical shift changes in the active site as induced by LOC14

**Q.** With `O=C(C1CC1)N1CCN(Cn2sc3ccccc3c2=O)CC1` [LOC14] as the molecule, how does the inhibition at 3 µM (Adrenergic β2) read?
**A.** 8%

**Q.** And the inhibition at 3 µM (Muscarinic M2)?
**A.** -3%

**Q.** What about the inhibition at 3 µM (Opiate (OP3, MOP)) of the same molecule?
**A.** -1%

**Q.** What about the inhibition at 3 µM [1] of the same molecule?
**A.** 36%

**Q.** And the Average (DAT)?
**A.** 0.0

**Q.** And the Average (CAV1.2)?
**A.** 1.2

**Q.** And the Average (hERG)?
**A.** 5.9

**Q.** What about the Average (NAV1.5) of the same molecule?
**A.** 7.0

**Q.** And the Average (NMDAR (1A/2B); Blocker mode)?
**A.** 0.0

**Q.** And the Average (NMDAR (1A/2B); Opener mode)?
**A.** 1.7

**Q.** And the Average (COX2)?
**A.** 2.8

**Q.** And the Average (ROCK1)?
**A.** 13.5

**Q.** What about the “inhibition of CYP1A2” value (CYP1A2) of the same molecule?
**A.** inhibits

**Q.** And the EC100 (parental ST14A cells)?
**A.** 24 nM
